From ChEMBL document CHEMBL2396526, “Chromenylchalcones showing cytotoxicity on human colon cancer cell lines and in silico docking with aurora kinases” (Bioorg Med Chem, 2013)

Tests used:
HCT-116 [1] = assay: Cytotoxicity against human HCT116 cells assessed as cell survival at 5 to 40 uM after 7 days by crystal violet staining assay; type: functional, cell-based; settings: HCT-116, 168 h
HCT-116 [2] = assay: Cytotoxicity against human HCT116 cells by MTT assay; type: functional, cell-based

| Structure (SMILES) | IC50 (HCT-116 [1]) [µM] | IC50 (HCT-116 [2]) [µM] |
| --- | --- | --- |
| COc1ccc2c(c1)C=C(C(=O)/C=C/c1ccccc1OC)CO2 | 1.62 | – |
| COc1cc(/C=C/C(=O)C2=Cc3cc(OC)ccc3OC2)cc(OC)c1 | 0.33 | – |
| COc1ccc(/C=C/C(=O)C2=Cc3cc(OC)ccc3OC2)cc1 | 0.59 | – |
| COc1ccc(C(=O)/C=C/C2=Cc3ccc(OC)cc3OC2)cc1 | 10.5 | – |
| COc1cccc(C(=O)/C=C/C2=Cc3cc(Br)ccc3OC2)c1 | 4.56 | – |
| COc1ccc2c(c1)C=C(C(=O)/C=C/c1cc(OC)c(OC)cc1OC)CO2 | 2.5 | – |
| COc1ccc(C(=O)/C=C/C2=Cc3cc(OC)ccc3OC2)cc1 | 7.95 | – |
| COc1ccc2c(c1)C=C(/C=C/C(=O)c1ccccc1OC)CO2 | 1.04 | – |
| COc1cc(OC)cc(C(=O)/C=C/C2=Cc3cc(Br)ccc3OC2)c1 | 3.4 | – |
| COc1ccccc1C(=O)/C=C/C1=Cc2cc(Br)ccc2OC1 | 6.13 | – |
| COc1ccc2c(c1)C=C(C(=O)/C=C/C1=Cc3cccc(OC)c3OC1)CO2 | 7.19 | – |
| COc1cc(OC)cc(C(=O)/C=C/C2=Cc3cc(OC)ccc3OC2)c1 | 35.5 | – |
| O=C(O[C@H]1Cc2c(O)cc(O)cc2O[C@@H]1c1ccc(O)c(O)c1)c1cc(O)c(O)c(O)c1 [CATECHIN GALLATE] | – | 53 |
| O=C(O[C@@H]1Cc2c(O)cc(O)cc2O[C@@H]1c1ccc(O)c(O)c1)c1cc(O)c(O)c(O)c1 [EPICATECHIN GALLATE] | – | 76 |
| COc1ccc2c(c1)C=C(C(=O)/C=C/C1=Cc3ccc(OC)cc3OC1)CO2 | 18.8 | – |
| COc1ccc2c(c1)C=C(C(=O)/C=C/c1ccc(OC)cc1OC)CO2 | 3.97 | – |
| COc1ccc2c(c1)C=C(/C=C/C(=O)C1=Cc3cc(OC)ccc3OC1)CO2 | 12.9 | – |
